Laboratory results taken from patent US7947694B2, “Substituted pyrazolo[3,4-D]pyrimidines as cell cycle kinase inhibitors” (Janssen Pharmaceutica NV, priority 2005, dated 2011).
Counter-ions that a name gives are not always drawn.

Assays:
Aurora-B = Aurora-B (Homo sapiens, UniProt Q96GD4); test: In vitro filtration assay for AURORA B inhibitory activity; assay type: biochemical; settings: peptide (C(LRRWSLG)×4) substrate, [33P]-ATP, 1 μM unlabeled ATP, 25° C., 40 minutes; read-out: Aurora B see C.3 (pIC50) (converted)
Chain of Aurora-B (Q96GD4 whole entry): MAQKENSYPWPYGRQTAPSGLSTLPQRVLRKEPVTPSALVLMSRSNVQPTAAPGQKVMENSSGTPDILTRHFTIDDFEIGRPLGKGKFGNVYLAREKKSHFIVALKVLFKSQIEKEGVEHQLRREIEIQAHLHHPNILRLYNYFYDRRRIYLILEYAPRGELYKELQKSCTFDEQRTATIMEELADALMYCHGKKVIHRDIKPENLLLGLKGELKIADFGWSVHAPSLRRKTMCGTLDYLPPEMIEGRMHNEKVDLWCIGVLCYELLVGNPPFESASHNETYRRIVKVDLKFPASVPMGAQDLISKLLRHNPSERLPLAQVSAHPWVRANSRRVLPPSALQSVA
Method: C.3 In Vitro Filtration Assay for AURORA B Inhibitory Activity
(§1) Compounds of the present invention were tested in an in vitro filtration assay assessing AURORA B activity by means of its substrate-phosphorylation activity using [^33P]-ATP as phosphor donor. The radioactive phosphorylated substrate is then captured on filtermats and the incorporated [^33P] quantitated using a phosphorage storage screen.
The Aurora-B kinase reaction is performed at 25° C. for 40 minutes in a 96-well microtiterplate. The 25 μl reaction volume contains 60 mM Hepes pH 7.5, 3 mM MgCl2, 3 mM MnCl2, 3 μM Na3VO4, 50 μg/ml PEG20000, 1 μM unlabeled ATP, 1 mM DTT, 0.2 μCi AT^33P, 0.25 μg/well peptide (C(LRRWSLG)×4), 100 ng Aurora-B/well and 0.2% compound in 100% DMSO.
(§2) The reaction is stopped by adding 5 μl of a 3% phosphoric acid solution. 10 μl of the reaction mixture is then spotted onto a Filtermat P30 filter (Wallac) and washed 3 times for 5 min. in 75 mM phosphoric acid and 1 time for 5 min. in methanol prior to drying and quantification on the Typhoon (Amersham) using a phosphorage storage screen.
(§3) C.4. Calculation of pIC50 Values
(§4) For each experiment, controls (containing enzyme (complex) and DMSO without compound), a blank incubation (containing DMSO but no enzyme (complex) or compound) and samples (containing enzyme (complex) and compound dissolved in DMSO) were run in parallel. All compounds tested were dissolved and eventually further diluted in DMSO. […] In each test, the blank value was subtracted from both the control and the sample values. The control sample represented maximal enzyme activity. For each sample, the amount of cpm was expressed as a percentage of the mean cpm value of the controls. When appropriate, IC50-values (concentration of the drug, needed to reduce the enzyme activity to 50% of the control) were computed using linear interpolation between the experimental points just above and below the 50% level. Herein the effects of test compounds are expressed as pIC50 (the negative log value of the IC50-value).

Aurora A = biological target: T1, Aurora A (Homo sapiens, UniProt O14965); test: In vitro filtration assay for AURORA A inhibitory activity; assay type: biochemical; settings: 200 μM Kemptide substrate, [33P]-ATP, 1 μM unlabeled ATP, 25° C., 40 minutes; read-out: Aurora A see C.2 (pIC50) (converted)
T1 sequence (O14965 1-403): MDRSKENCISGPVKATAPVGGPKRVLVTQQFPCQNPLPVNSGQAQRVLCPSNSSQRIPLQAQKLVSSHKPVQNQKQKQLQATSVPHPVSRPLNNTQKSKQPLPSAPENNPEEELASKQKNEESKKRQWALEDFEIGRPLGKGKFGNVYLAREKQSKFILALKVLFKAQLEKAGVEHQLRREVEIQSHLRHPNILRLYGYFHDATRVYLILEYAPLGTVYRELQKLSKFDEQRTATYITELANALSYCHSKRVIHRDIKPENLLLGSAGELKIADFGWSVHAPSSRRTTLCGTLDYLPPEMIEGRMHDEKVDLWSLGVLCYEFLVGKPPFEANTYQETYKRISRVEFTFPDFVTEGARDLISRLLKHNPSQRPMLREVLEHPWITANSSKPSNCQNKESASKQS
Method: C.2. In Vitro Filtration Assay for AURORA A Inhibitory Activity
as §1, with “A” for “B”
The Aurora-A kinase reaction is performed at 25° C. for 40 minutes in a 96-well microtiterplate. The 25 μl reaction volume contains 12 mM MOPS pH 7, 0.4 mM EDTA, 0.002% Brij35, 1% glycerol, 0.02% beta-mercapto-ethanol, 0.2 mg/ml BSA, 1 μM unlabeled ATP, 0.2 μCi [^33P]-ATP, 200 μM Kemptide, 3 ng Aurora A/well and 0.2% compound in 100% DMSO.
as §2, §3, §4

CDK4/cyclinD1 = CDK4/cyclinD1 (Homo sapiens, UniProt P11802); test: In vitro filtration assay for CDK4 inhibitory activity; assay type: biochemical; settings: GST-pRb phosphorylation, [33P]-ATP, 1 μM unlabeled ATP, 25° C., 45 minutes; read-out: cdk4 filter (pIC50) (converted)
Chain of CDK4/cyclinD1 (P11802 whole entry, species assumed): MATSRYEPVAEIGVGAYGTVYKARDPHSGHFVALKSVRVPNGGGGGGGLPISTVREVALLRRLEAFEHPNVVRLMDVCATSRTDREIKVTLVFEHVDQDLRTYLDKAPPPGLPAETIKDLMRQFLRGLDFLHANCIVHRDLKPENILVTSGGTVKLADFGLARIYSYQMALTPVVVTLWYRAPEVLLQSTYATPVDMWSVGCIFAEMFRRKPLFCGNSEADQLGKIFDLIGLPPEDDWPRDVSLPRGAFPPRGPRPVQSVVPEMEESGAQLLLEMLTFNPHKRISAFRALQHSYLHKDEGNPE
Chain of CDK4/cyclinD1 (P24385 whole entry partner, species assumed): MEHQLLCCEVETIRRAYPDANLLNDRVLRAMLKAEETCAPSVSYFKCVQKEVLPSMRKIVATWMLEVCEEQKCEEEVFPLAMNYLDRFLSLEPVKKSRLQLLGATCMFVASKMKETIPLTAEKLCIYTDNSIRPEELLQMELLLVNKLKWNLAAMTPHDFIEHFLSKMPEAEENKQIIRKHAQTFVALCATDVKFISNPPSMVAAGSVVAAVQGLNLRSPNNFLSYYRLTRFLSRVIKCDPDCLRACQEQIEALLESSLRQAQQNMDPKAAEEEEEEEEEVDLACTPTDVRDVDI
Method: C.1. In Vitro Filtration Assay for CDK4 Inhibitory Activity
as §1, with “CDK4” for “AURORA B”, “pRb-phosphorylation” for “substrate-phosphorylation”, “pRb” for “substrate”
The CDK4 kinase reaction is performed at 25° C. for 45 minutes in a 96-well microtiterplate. The 25 μl reaction volume contains 50 mM Hepes pH 7.5, 10 mM NaF, 10 mM MgCl2, 1 mM Na3VO4, 1 μM unlabeled ATP, 1 mM DTT, 0.5 μCi AT^33P, 0.76 μg/well GST-pRb, 50 ng CDK4/cyclinD1/well and 0.2% compound in 100% DMSO.
as §2, §3, §4

`COCCCNCc1ccc(Nc2ncc3cnn(C4CCCCC4)c3n2)cc1` (as salt: HCl) [Co. No. 2] showed a melting point of 212 to 214 °C.
Work on `CCN(CC)CC(O)COc1ccc(Nc2ncc3cnn(C4CCCCC4)c3n2)cc1` (centres unmarked) [Co. No. 1] yielded an IC50 (Aurora-B) greater than 10 µM, an IC50 (Aurora A) of 1580 nM and an IC50 (CDK4/cyclinD1) of 7.94 nM.
In the case of `COCCCNCc1ccc(Nc2ncc3cnn(C4CCCCC4)c3n2)cc1` [Co. No. 2], the IC50 (Aurora-B) is reported as greater than 10 µM, the IC50 (Aurora A) is reported as 158 nM and the IC50 (CDK4/cyclinD1) is reported as 6.31 nM.
`c1ncn(-c2ccc(Nc3ncc4cnn(C5CCCCC5)c4n3)cc2)n1` [Co. No. 3] showed a melting point of 222.5 to 224 °C, an IC50 (Aurora-B) of 7.94 µM and an IC50 (Aurora A) of 126 nM. For the same compound, the IC50 (CDK4/cyclinD1) was 15.8 nM.
Work on `c1ccc2c(c1)CC(NCc1ccc(Nc3ncc4cnn([C@H]5C[C@@H]6CC[C@H]5C6)c4n3)cc1)C2` [Co. No. 4] yielded an IC50 (Aurora-B) of 0.316 µM, an IC50 (Aurora A) of 316 nM and an IC50 (CDK4/cyclinD1) of 25.1 nM.
`COCCCNS(=O)(=O)c1ccc(Nc2ncc3cnn(C4CCCCC4)c3n2)cc1` [Co. No. 5] showed an IC50 (Aurora-B) greater than 10 µM, an IC50 (Aurora A) of 631 nM and an IC50 (CDK4/cyclinD1) of 1260 nM.
In the case of `CCN(CC)CCNC(=O)c1ccc(Nc2ncc3cnn(C4CCCCC4)c3n2)cc1` [Co. No. 6], the IC50 (Aurora-B) is reported as greater than 10 µM, the IC50 (Aurora A) is reported as 1580 nM and the IC50 (CDK4/cyclinD1) is reported as 25.1 nM.
Compound `CCN(CC)CCCOc1ccc(Nc2ncc3cnn(C4CCCCC4)c3n2)cc1` [Co. No. 7] has an IC50 (Aurora-B) greater than 10 µM, an IC50 (Aurora A) greater than 10000 nM and an IC50 (CDK4/cyclinD1) of 20 nM.
For `COCCCN(Cc1ccc(Nc2ncc3cnn(C4CCCCC4)c3n2)cc1)C(=O)OC(C)(C)C` [Co. No. 8], the IC50 (Aurora-B) was greater than 10 µM, the IC50 (Aurora A) was 631 nM and the IC50 (CDK4/cyclinD1) was 1000 nM.
Work on `COCCCNCc1ccc(Nc2ncc3cnn([C@H]4C[C@@H]5CC[C@H]4C5)c3n2)cc1` [Co. No. 9] yielded an IC50 (Aurora-B) of 0.158 µM, an IC50 (Aurora A) of 251 nM and an IC50 (CDK4/cyclinD1) of 79.4 nM.
`COCCCNCc1ccc(Nc2ncc3cnn([C@H]4C[C@@H]5CC[C@H]4C5)c3n2)cc1` [Co. No. 10] showed an IC50 (Aurora-B) of 0.2 µM, an IC50 (Aurora A) of 200 nM and an IC50 (CDK4/cyclinD1) of 31.6 nM.
`COCCCN(Cc1ccc(Nc2ncc3cnn([C@H]4C[C@@H]5CC[C@H]4C5)c3n2)cc1)C(=O)OC(C)(C)C` [Co. No. 11] gave an IC50 (Aurora-B) of 5.01 µM, an IC50 (Aurora A) of 794 nM and an IC50 (CDK4/cyclinD1) of 2000 nM.
For `COCCCNCc1ccc(Nc2ncc3cnn(C4CCOCC4)c3n2)cc1` [Co. No. 12], the IC50 (Aurora-B) was 7.94 µM, the IC50 (Aurora A) was 3980 nM and the IC50 (CDK4/cyclinD1) was 631 nM.
With `COCCCN(Cc1ccc(Nc2ncc3cnn(C4CCOCC4)c3n2)cc1)C(=O)OC(C)(C)C` [Co. No. 13] the IC50 (Aurora-B) was 0.794 µM, the IC50 (Aurora A) was 100 nM and the IC50 (CDK4/cyclinD1) was 2000 nM.
Compound `c1cc2cc(Nc3ncc4cnn(C5CCCCC5)c4n3)ccc2[nH]1` [Co. No. 14] has an IC50 (Aurora-B) of 7.94 µM, an IC50 (Aurora A) of 316 nM and an IC50 (CDK4/cyclinD1) of 158 nM.
With `CC(C)(C)OC(=O)N(Cc1ccc(Nc2ncc3cnn(C4CCCCC4)c3n2)cc1)C1Cc2ccccc2C1` [Co. No. 15] the IC50 (Aurora-B) was greater than 10 µM, the IC50 (Aurora A) was 1000 nM and the IC50 (CDK4/cyclinD1) was greater than 10000 nM.
In the case of `c1ccc2c(c1)CC(NCc1ccc(Nc3ncc4cnn(C5CCCCC5)c4n3)cc1)C2` [Co. No. 16], the IC50 (Aurora-B) is reported as 7.94 µM, the IC50 (Aurora A) is reported as 251 nM and the IC50 (CDK4/cyclinD1) is reported as 12.6 nM.
`O=C(NC1Cc2ccccc2C1)c1ccc(Nc2ncc3cnn(C4CCCCC4)c3n2)cc1` [Co. No. 17] showed an IC50 (Aurora-B) of 0.501 µM, an IC50 (Aurora A) of 316 nM and an IC50 (CDK4/cyclinD1) of 63.1 nM.
`c1ccc2c(c1)CC(NCc1ccc(Nc3ncc4cnn(C5CCOCC5)c4n3)cc1)C2` [Co. No. 18] gave an IC50 (Aurora-B) of 6.31 µM, an IC50 (Aurora A) of 3160 nM and an IC50 (CDK4/cyclinD1) of 63.1 nM.
In the case of `CC(C)(C)OC(=O)N(c1ccc(CN(C(=O)OC(C)(C)C)C2Cc3ccccc3C2)cc1)c1ncc2cnn([C@H]3C[C@@H]4CC[C@H]3C4)c2n1` [Co. No. 19], the IC50 (Aurora-B) is reported as 0.631 µM, the IC50 (Aurora A) is reported as 158 nM and the IC50 (CDK4/cyclinD1) is reported as greater than 10000 nM.
Work on `CC(C)(C)OC(=O)N(Cc1ccc(Nc2ncc3cnn([C@H]4C[C@@H]5CC[C@H]4C5)c3n2)cc1)C1Cc2ccccc2C1` [Co. No. 20] yielded an IC50 (Aurora-B) greater than 10 µM, an IC50 (Aurora A) of 6310 nM and an IC50 (CDK4/cyclinD1) greater than 10000 nM.
Compound `CN(C)CCOC(=O)c1ccc(Nc2ncc3cnn(C4CCCCC4)c3n2)cc1` [Co. No. 21] has an IC50 (Aurora-B) of 7.94 µM, an IC50 (Aurora A) of 631 nM and an IC50 (CDK4/cyclinD1) of 100 nM.
